The values below come from ChEMBL document CHEMBL3877282, “Synthesis and structure-activity studies of side chain analogues of the anti-tubercular agent, Q203” (Eur J Med Chem, 2017).

Each structure is given as a SMILES string. Converted amounts (≈) assume the structure as drawn.

Series [1] deals with Mycobacterium tuberculosis. Briefly: Antimycobacterial activity against GFP-fused Mycobacterium tuberculosis H37Rv in liquid broth culture medium. The format is functional.
Series [2] has as its system Mycobacterium tuberculosis. The series is described as follows: Antimycobacterial activity against GFP-fused Mycobacterium tuberculosis H37Rv infected in macrophages. It counts as functional.
The nature of series [3]: Half life in mouse at 2 mg/kg, iv. It counts as ADME, organism-based. Particulars: in vivo.
Series [4] is described as follows: Clearance in mouse at 2 mg/kg, iv. The format is ADME, organism-based. Particulars: in vivo.
Series [5] is described as follows: Volume of distribution at steady state in mouse at 2 mg/kg, iv. It counts as ADME, organism-based. As to conditions: in vivo, read-out: Vdss.
The nature of series [6]: Cmax in mouse at 10 mg/kg, po. The format is ADME, organism-based. Set-up: dose 10 mg/kg, route oral. Particulars: in vivo.
Series [7] is described as follows: Half life in mouse at 10 mg/kg, po. It counts as ADME, organism-based. Particulars: in vivo.
Series [8] in a line: Tmax in mouse at 10 mg/kg, po. It counts as ADME, organism-based. As to conditions: in vivo.
The nature of series [9]: AUC (0 to infinity) in mouse at 10 mg/kg, po. As to conditions: in vivo. Further details: dose 10 mg/kg, route oral, time infinity. It counts as ADME, organism-based.
A short description of series [10]: Oral bioavailability in mouse at 10 mg/kg. The format is ADME, organism-based. As to conditions: in vivo.

For the compound `CCc1nc2cc(Cl)ccn2c1C(=O)NCc1ccc(Oc2ccc(OC(F)(F)F)cc2)cc1`, the MIC80 in [1] turned out to be 0.064 µM (≈ 0.0314 µg/mL); in series [2], 0.027 µM (≈ 0.0132 µg/mL).
In the case of `CCc1nc2ccc(Cl)cn2c1C(=O)NCc1ccc(N2CCN(Cc3ccc(OC(F)(F)F)cc3)CC2)cc1`, the figures for the MIC80 in series [1] and in series [2] were 0.015 µM (≈ 0.00858 µg/mL) and 0.082 µM (≈ 0.0469 µg/mL), respectively.
With `CCc1nc2cc(Cl)ccn2c1C(=O)NCc1ccc(N(C)c2ccc(OC(F)(F)F)cc2)cc1`, the MIC80 in series [1] was 0.04 µM (≈ 0.0201 µg/mL); in [2], 0.023 µM (≈ 0.0116 µg/mL).
As to `CCc1nc2ccc(Br)cn2c1C(=O)NCc1ccc(OCc2ccc(OC(F)(F)F)cc2)cc1`, the MIC80 in [1] turned out to be 0.432 µM (≈ 0.237 µg/mL).
As for `CCc1nc2cc(Cl)ccn2c1C(=O)NCc1ccc(OCc2ccc(F)cc2)cc1`, in [1], the MIC80 amounted to 0.02 µM (≈ 0.00876 µg/mL).
On the same count and under the same terms, the same measure for `CCc1nc2ccc(Cl)cn2c1C(=O)NCc1ccc(N2CCC(Oc3ccc(Cl)cc3)C2)cc1` (single isomer, unassigned; 41): 0.014 µM (≈ 0.00713 µg/mL); for `CCc1nc2ccc(Cl)cn2c1C(=O)NCc1ccc(N2CCN(C(=O)c3ccc(F)cc3)CC2)cc1`: 0.534 µM (≈ 0.278 µg/mL).
Take `NNC(=O)c1ccncc1` [ISONIAZID]: the MIC80 amounted to 0.49 µM (≈ 0.0672 µg/mL) in series [1] and 0.2 µM (≈ 0.0274 µg/mL) in [2].
As for `CCc1nc2ccc(Cl)cn2c1C(=O)NCc1ccc(N2CCC(Oc3ccc(Cl)cc3)C2)cc1` (single isomer, unassigned; 40), the MIC80 in series [1] turned out to be 0.006 µM (≈ 0.00306 µg/mL).
In [1], `CCc1nc2ccccn2c1C(=O)NCc1ccc(OCc2ccc(OC(F)(F)F)cc2)cc1` gave an MIC80 of 0.027 µM (≈ 0.0127 µg/mL).
The compound `CCc1nc2cc(Cl)ccn2c1C(=O)NCc1ccc(N2CCC(Cc3ccccc3)CC2)cc1` registered an MIC80 in [1] of 0.022 µM (≈ 0.0107 µg/mL).
For orientation: half-life means how long it takes for the measured level to halve. A high value points to slow loss. In general, clearance refers to a measure of how efficiently the substance is removed, as volume per time. One may read the Cmax as the maximum level reached in the sampled fluid or tissue. As usually defined, the Tmax is the time from dosing to the highest level. One may read the AUC(0-inf) as the area under the concentration-time curve extrapolated to infinity. One may read the bioavailability as the share of a dose that reaches the circulation, judged against a reference dose that is usually intravenous. Turning to `CCc1nc2ccc(Cl)cn2c1C(=O)NCc1ccc(N2CCC(Oc3ccc(Cl)cc3)CC2)cc1`, the MIC80 is 0.003 µM (≈ 0.00157 µg/mL) in series [1] and less than 0.001 µM in [2]. The half-life was 14.1 h in series [3] and 18.9 h in series [7]. In series [4], this compound had a clearance of 2.83 mL/min/kg. Moreover, in series [5], the Vd amounted to 1.34 L/kg. In series [6], this compound displayed a maximum concentration (Cmax) of 3540 ng/mL. Moreover, the time to peak (Tmax) in [8] was found to be 2 h. Further, in series [9], the AUC(0-inf) worked out at 30300 ng·h/mL. Moreover, in [10], the bioavailability came to 51.4%.
`CCc1nc2cc(Cl)ccn2c1C(=O)NCc1ccc(Nc2ccc(OC(F)(F)F)cc2)cc1` returned an MIC80 in [1] of 0.839 µM (≈ 0.41 µg/mL).
The same measure, in the same setting: the same measure for `CCc1nc2ccc(Cl)cn2c1C(=O)NCc1ccc(N2CCN(C(=O)Cc3ccc(F)cc3)CC2)cc1`: 0.373 µM (≈ 0.199 µg/mL).
Same read-out and setting: next, `CCc1nc2ccc(Cl)cn2c1C(=O)NCc1ccc(OCc2ccc(OC(F)(F)F)cc2)cc1`: 0.015 µM (≈ 0.00756 µg/mL).
For `CCc1nc2ccc(F)cn2c1C(=O)NCc1ccc(OCc2ccc(OC(F)(F)F)cc2)cc1`, the values for the MIC80 in series [1] and in series [2] were 0.084 µM (≈ 0.0409 µg/mL) and 0.028 µM (≈ 0.0136 µg/mL), respectively. The results for the half-life in [3] and in series [7] were 11 h and 11.4 h, respectively. In addition, the clearance in series [4] was determined as 4.76 mL/min/kg. Moreover, the Vd in [5] was 3.85 L/kg. Besides, the maximum concentration (Cmax) in [6] stood at 2620 ng/mL. In addition, in series [8], the Tmax worked out at 1 h. The AUC(0-inf) in series [9] is 28200 ng·h/mL. The compound further displayed a bioavailability in series [10] of 80.5%.
With `CCc1nc2cc(Cl)ccn2c1C(=O)NCc1ccc(NCc2ccc(OC(F)(F)F)cc2)cc1`, in [1], the MIC80 was 0.25 µM (≈ 0.126 µg/mL).
On to `CCc1nc2ccc(Cl)cn2c1C(=O)NCc1ccc(N2CCC(Oc3ccc(C(F)(F)F)cc3)CC2)cc1`, for which the MIC80 amounted to 0.026 µM (≈ 0.0145 µg/mL) in [1] and 0.009 µM (≈ 0.00501 µg/mL) in series [2]. Moreover, the half-life in [3] is 19.6 h; in series [7], 20 h. The compound further displayed a clearance in series [4] of 2.23 mL/min/kg. The Vd in series [5] amounted to 2.39 L/kg. In addition, the maximum concentration (Cmax) in series [6] was 4100 ng/mL. Also, the time of peak concentration (Tmax) in series [8] amounted to 2 h. The compound also came in with an AUC(0-inf) in [9] of 48900 ng·h/mL. Besides, in [10], the bioavailability stood at 65.6%.
As to `CCc1nc2cc(Cl)ccn2c1C(=O)NCc1ccc(OCc2ccc(OC(F)(F)F)cc2)cc1`, the MIC80 in series [1] was 0.015 µM (≈ 0.00756 µg/mL); in series [2] it was less than 0.001 µM. Moreover, the half-life in [3] was 13.9 h; in [7], 11.9 h. The compound further returned a clearance in series [4] of 5.77 mL/min/kg. Moreover, the Vd in [5] was 4.68 L/kg. In series [6], the highest concentration (Cmax) turned out to be 1640 ng/mL. Also, in [8], the time of peak concentration (Tmax) amounted to 0.5 h. The compound also registered an AUC(0-inf) in [9] of 11500 ng·h/mL. This compound returned a bioavailability in series [10] of 53.4%.
Compound `CCc1nc2ccc(Cl)cn2c1C(=O)NCc1ccc(N2CCC(COc3ccc(OC(F)(F)F)cc3)CC2)cc1` had an MIC80 in series [1] of 0.037 µM (≈ 0.0217 µg/mL).
The same measure, in the same setting: next, `CCc1nc2ccc(Cl)cn2c1C(=O)NCc1ccc(N2CCC(Oc3ccc(F)cc3)CC2)cc1`: 0.01 µM (≈ 0.00507 µg/mL).
Compound `CCc1nc2ccc(Cl)cn2c1C(=O)NCc1ccc(N2CCC(Oc3ccc(OC(F)(F)F)cc3)CC2)cc1` had an MIC80 in series [1] of 0.007 µM (≈ 0.00401 µg/mL).
Same read-out and setting: next, `CCc1nc2cc(Cl)ccn2c1C(=O)NCc1ccc(N2CCC(Oc3ccc(OC(F)(F)F)cc3)CC2)cc1`: 0.021 µM (≈ 0.012 µg/mL).
